According to ChEMBL document CHEMBL1201861, “Genomics of Drug Sensitity in Cancer screening data, Wellcome Trust Sanger Institute”:

Columns and labels:
Test in all cases: cells
COLO-800 = assay type: functional, cell-based, Homo sapiens; conditions: Homo sapiens, COLO-800;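 note: growth inhibition of COLO-800 cells, read out with a cell viability assay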
Description: SANGER: Inhibition of human COLO-800 cell growth in a cell viability assay.

CTV-1 = assay type: functional, cell-based, Homo sapiens; conditions: Homo sapiens, CTV-1;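 note: growth inhibition of the cell line, read out with a cell viability assay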
Description: SANGER: Inhibition of human CTV-1 cell growth in a cell viability assay.

D283 Med = assay type: functional, cell-based, Homo sapiens; conditions: Homo sapiens, D283 Med
Description: SANGER: Inhibition of human D-283MED cell growth in a cell viability assay.

DSH1 = assay type: functional, cell-based, Homo sapiens; conditions: Homo sapiens, DSH1;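 note: growth inhibition of human DSH1 cells, measured with a cell viability readout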
Description: SANGER: Inhibition of human DSH1 cell growth in a cell viability assay.

EC-GI-10 = assay type: functional, cell-based, Homo sapiens; conditions: Homo sapiens, EC-GI-10
Description: SANGER: Inhibition of human EC-GI-10 cell growth in a cell viability assay.

EKVX = assay type: functional, cell-based, Homo sapiens; conditions: Homo sapiens, EKVX;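 note: growth inhibition of human EKVX cells, read out with a cell viability assay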
Description: SANGER: Inhibition of human EKVX cell growth in a cell viability assay.

ES3 = assay type: functional, cell-based, Homo sapiens; conditions: Homo sapiens, ES3;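 note: growth inhibition of ES3 cells, read out with a cell viability assay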
Description: SANGER: Inhibition of human ES3 cell growth in a cell viability assay.

ES4 = assay type: functional, cell-based, Homo sapiens; conditions: Homo sapiens, ES4;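 note: growth inhibition of human ES4 cells, read out by a cell viability assay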
Description: SANGER: Inhibition of human ES4 cell growth in a cell viability assay.

ES5 = assay type: functional, cell-based, Homo sapiens; conditions: Homo sapiens, ES5;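 note: growth inhibition of human ES5 cells, read out by a cell viability assay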
Description: SANGER: Inhibition of human ES5 cell growth in a cell viability assay.

ES6 = assay type: functional, cell-based, Homo sapiens; conditions: Homo sapiens, ES6;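 note: growth inhibition of human ES6 cells, read out with a cell viability assay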
Description: SANGER: Inhibition of human ES6 cell growth in a cell viability assay.

EOL1 = assay type: functional, cell-based, Homo sapiens; conditions: Homo sapiens, EOL1;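 note: growth inhibition of EoL-1 cells, read out by a cell viability assay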
Description: SANGER: Inhibition of human EoL-1-cell cell growth in a cell viability assay.

HAL-01 = assay type: functional, cell-based, Homo sapiens; conditions: Homo sapiens, HAL-01;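 note: growth inhibition of human HAL-01 cells, read out with a cell viability assay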
Description: SANGER: Inhibition of human HAL-01 cell growth in a cell viability assay.

HC-1 = assay type: functional, cell-based, Homo sapiens; conditions: Homo sapiens, HC-1;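 note: growth inhibition of HC-1 cells measured by a cell viability assay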
Description: SANGER: Inhibition of human HC-1 cell growth in a cell viability assay.

HCC2218 = assay type: functional, cell-based, Homo sapiens; conditions: Homo sapiens, HCC2218;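 note: cell viability assay read-out, with IC50 given as the concentration that inhibits growth of the cell line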
Description: SANGER: Inhibition of human HCC2218 cell growth in a cell viability assay.

HD-MY-Z = assay type: functional, cell-based, Homo sapiens; conditions: Homo sapiens, HD-MY-Z;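 note: growth inhibition of HD-MY-Z cells, read out with a cell viability assay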
Description: SANGER: Inhibition of human HD-MY-Z cell growth in a cell viability assay.

HEL = assay type: functional, cell-based, Homo sapiens; conditions: Homo sapiens, HEL;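 note: growth inhibition of HEL cells, read out with a cell viability assay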
Description: SANGER: Inhibition of human HEL cell growth in a cell viability assay.

J-RT3-T3-5 = assay type: functional, cell-based, Homo sapiens; conditions: Homo sapiens, J-RT3-T3-5;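 note: cell viability assay measuring growth inhibition of human J-RT3-T3-5 cells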
Description: SANGER: Inhibition of human J-RT3-T3-5 cell growth in a cell viability assay.

KLE = assay type: functional, cell-based, Homo sapiens; conditions: Homo sapiens, KLE;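 note: growth inhibition of human KLE cells, read out with a cell viability assay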
Description: SANGER: Inhibition of human KLE cell growth in a cell viability assay.

KM12 = assay type: functional, cell-based, Homo sapiens; conditions: Homo sapiens, KM12;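 note: KM12 cell growth inhibition, read out with a cell viability assay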
Description: SANGER: Inhibition of human KM12 cell growth in a cell viability assay.

KNS-42 = assay type: functional, cell-based, Homo sapiens; conditions: Homo sapiens, KNS-42;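 note: growth inhibition of KNS-42 cells, read out with a cell viability assay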
Description: SANGER: Inhibition of human KNS-42 cell growth in a cell viability assay.

KNS-81-FD = assay type: functional, cell-based, Homo sapiens; conditions: Homo sapiens, KNS-81-FD;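 note: growth inhibition of KNS-81-FD cells, read out with a cell viability assay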
Description: SANGER: Inhibition of human KNS-81-FD cell growth in a cell viability assay.

KS-1 = assay type: functional, cell-based, Homo sapiens; conditions: Homo sapiens, KS-1;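 note: growth inhibition of KS-1 cells, read out with a cell viability assay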
Description: SANGER: Inhibition of human KS-1 cell growth in a cell viability assay.

KY821 = assay type: functional, cell-based, Homo sapiens; conditions: Homo sapiens, KY821;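 note: growth inhibition of human KY821 cells, read out by a cell viability assay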
Description: SANGER: Inhibition of human KY821 cell growth in a cell viability assay.

LB373-MEL-D = assay type: functional, cell-based, Homo sapiens; conditions: Homo sapiens, LB373-MEL-D;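 note: growth inhibition of the cell line, read out in a cell viability assay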
Description: SANGER: Inhibition of human LB373-MEL-D cell growth in a cell viability assay.

LB771-HNC = assay type: functional, cell-based, Homo sapiens; conditions: Homo sapiens, LB771-HNC;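 note: growth inhibition of LB771-HNC human cells, read out with a cell viability assay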
Description: SANGER: Inhibition of human LB771-HNC cell growth in a cell viability assay.

LS-1034 = assay type: functional, cell-based, Homo sapiens; conditions: Homo sapiens, LS-1034
Description: SANGER: Inhibition of human LS-1034 cell growth in a cell viability assay.

LS-411N = assay type: functional, cell-based, Homo sapiens; conditions: Homo sapiens, LS-411N
LU-139 = assay type: functional, cell-based, Homo sapiens; conditions: Homo sapiens, LU-139
Description: SANGER: Inhibition of human LU-139 cell growth in a cell viability assay.

MFM-223 = assay type: functional, cell-based, Homo sapiens; conditions: Homo sapiens, MFM-223
Description: SANGER: Inhibition of human MFM-223 cell growth in a cell viability assay.

MOLT-16 = assay type: functional, cell-based, Homo sapiens; conditions: Homo sapiens, MOLT-16;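 note: growth inhibition of human MOLT-16 cells, read out with a cell viability assay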
Description: SANGER: Inhibition of human MOLT-16 cell growth in a cell viability assay.

MV4-11 = assay type: functional, cell-based, Homo sapiens, MV-4-11; conditions: Homo sapiens, MV4-11;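 note: cell viability readout measuring growth inhibition of human MV-4-11 cells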
Description: SANGER: Inhibition of human MV-4-11 cell growth in a cell viability assay.

NCI-H1838 = assay type: functional, cell-based, Homo sapiens; conditions: Homo sapiens, NCI-H1838;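 note: growth inhibition of NCI-H1838 cells, determined with a cell viability readout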
Description: SANGER: Inhibition of human NCI-H1838 cell growth in a cell viability assay.

NCI-H226 = assay type: functional, cell-based, Homo sapiens; conditions: Homo sapiens, NCI-H226;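 note: cell viability read-out used to gauge growth inhibition of the cells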
Description: SANGER: Inhibition of human NCI-H226 cell growth in a cell viability assay.

NCI-H69 = assay type: functional, cell-based, Homo sapiens; conditions: Homo sapiens, NCI-H69;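 note: growth inhibition of the cell line, read out with a cell viability assay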
Description: SANGER: Inhibition of human NCI-H69 cell growth in a cell viability assay.

NCI-H720 = assay type: functional, cell-based, Homo sapiens; conditions: Homo sapiens, NCI-H720;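 note: growth inhibition of human NCI-H720 cells determined by a cell viability assay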
Description: SANGER: Inhibition of human NCI-H720 cell growth in a cell viability assay.

SNU1 = assay type: functional, cell-based, Homo sapiens; conditions: Homo sapiens, SNU1;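 note: growth inhibition of human NCI-SNU-1 cells, measured with a cell viability assay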
Description: SANGER: Inhibition of human NCI-SNU-1 cell growth in a cell viability assay.

NOS-1 = assay type: functional, cell-based, Homo sapiens; conditions: Homo sapiens, NOS-1;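 note: growth inhibition of the human NOS-1 cell line, read out with a cell viability assay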
Description: SANGER: Inhibition of human NOS-1 cell growth in a cell viability assay.

NTERA-2-cl-D1 = assay type: functional, cell-based, Homo sapiens; conditions: Homo sapiens, NTERA-2-cl-D1;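 note: inhibition of cell growth, measured with a cell viability assay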
Description: SANGER: Inhibition of human NTERA-S-cl-D1 cell growth in a cell viability assay.

SJSA-1 = assay type: functional, cell-based, Homo sapiens; conditions: Homo sapiens, SJSA-1;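 note: growth inhibition of human SJSA-1 cells, read out through a cell viability measurement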
Description: SANGER: Inhibition of human SJSA-1 cell growth in a cell viability assay.

SK-LMS-1 = assay type: functional, cell-based, Homo sapiens; conditions: Homo sapiens, SK-LMS-1;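 note: growth inhibition of human SK-LMS-1 cells, read out with a cell viability assay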
Description: SANGER: Inhibition of human SK-LMS-1 cell growth in a cell viability assay.

SK-NEP-1 = assay type: functional, cell-based, Homo sapiens; conditions: Homo sapiens, SK-NEP-1;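 note: growth inhibition of human SK-NEP-1 cells, read out by a cell viability assay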
Description: SANGER: Inhibition of human SK-NEP-1 cell growth in a cell viability assay.

SW684 = assay type: functional, cell-based, Homo sapiens; conditions: Homo sapiens, SW684;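 note: growth inhibition of human SW684 cells, measured by a cell viability assay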
Description: SANGER: Inhibition of human SW684 cell growth in a cell viability assay.

A3-KAW = assay type: functional, cell-based, Homo sapiens; conditions: Homo sapiens, A3-KAW;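 note: growth inhibition of human A3-KAW cells, read out with a cell viability assay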
Description: SANGER: Inhibition of human A3-KAW cell growth in a cell viability assay.

ATN-1 = assay type: functional, cell-based, Homo sapiens; conditions: Homo sapiens, ATN-1;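 note: growth inhibition of human ATN-1 cells, read out with a cell viability assay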
Description: SANGER: Inhibition of human ATN-1 cell growth in a cell viability assay.

TE-10 = assay type: functional, cell-based, Homo sapiens; conditions: Homo sapiens, TE-10;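 note: growth inhibition of TE-10 cells, measured by a cell viability assay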
Description: SANGER: Inhibition of human TE-10 cell growth in a cell viability assay.

TE-11 = assay type: functional, cell-based, Homo sapiens; conditions: Homo sapiens, TE-11;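 note: growth inhibition of human TE-11 cells, read out by a cell viability assay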
Description: SANGER: Inhibition of human TE-11 cell growth in a cell viability assay.

TK-10 = assay type: functional, cell-based, Homo sapiens; conditions: Homo sapiens, TK-10;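 note: growth inhibition of TK-10 cells, read out in a cell viability assay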
Description: SANGER: Inhibition of human TK10 cell growth in a cell viability assay.

CAS-1 = assay type: functional, cell-based, Homo sapiens; conditions: Homo sapiens, CAS-1;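 note: growth inhibition of CAS-1 cells, measured with a cell viability assay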
Description: SANGER: Inhibition of human CAS-1 cell growth in a cell viability assay.

COLO-684 = assay type: functional, cell-based, Homo sapiens; conditions: Homo sapiens, COLO-684
Description: SANGER: Inhibition of human COLO-684 cell growth in a cell viability assay.

COc1cc(-c2nn([C@H]3CC[C@H](N4CCN(C(C)=O)CC4)CC3)c3ncnc(N)c23)ccc1NC(=O)c1cc2ccccc2n1C
IC50 (COLO-800): > 5.12 µM | IC50 (CTV-1): < 0.02 µM | IC50 (D283 Med): > 5.12 µM | IC50 (DSH1): > 5.12 µM | IC50 (EC-GI-10): > 5.12 µM | IC50 (EKVX): > 5.12 µM | IC50 (ES3): > 5.12 µM | IC50 (ES4): > 5.12 µM | IC50 (ES5): > 5.12 µM | IC50 (ES6): 1.96 µM | IC50 (EOL1): 4.55 µM | IC50 (HAL-01): 3.08 µM | IC50 (HC-1): 3.19 µM | IC50 (HCC2218): > 5.12 µM | IC50 (HD-MY-Z): 4.88 µM | IC50 (HEL): > 5.12 µM | IC50 (J-RT3-T3-5): > 5.12 µM | IC50 (KLE): 2.5 µM | IC50 (KM12): > 5.12 µM | IC50 (KNS-42): > 5.12 µM | IC50 (KNS-81-FD): > 5.12 µM | IC50 (KS-1): 1.03 µM | IC50 (KY821): 3.65 µM | IC50 (LB373-MEL-D): > 5.12 µM | IC50 (LB771-HNC): > 5.12 µM | IC50 (LS-1034): > 5.12 µM | IC50 (LS-411N): > 5.12 µM | IC50 (LU-139): > 5.12 µM | IC50 (MFM-223): > 5.12 µM | IC50 (MOLT-16): > 5.12 µM | IC50 (MV4-11): > 5.12 µM | IC50 (NCI-H1838): > 5.12 µM | IC50 (NCI-H226): > 5.12 µM | IC50 (NCI-H69): > 5.12 µM | IC50 (NCI-H720): > 5.12 µM | IC50 (SNU1): > 5.12 µM | IC50 (NOS-1): 0.196 µM | IC50 (NTERA-2-cl-D1): > 5.12 µM | IC50 (SJSA-1): > 5.12 µM | IC50 (SK-LMS-1): > 5.12 µM | IC50 (SK-NEP-1): > 5.12 µM | IC50 (SW684): > 5.12 µM | IC50 (A3-KAW): > 5.12 µM | IC50 (ATN-1): > 5.12 µM | IC50 (TE-10): 2.36 µM | IC50 (TE-11): 1.58 µM | IC50 (TK-10): 0.596 µM | IC50 (CAS-1): > 5.12 µM | IC50 (COLO-684): > 5.12 µM
